Data taken from patent publication EP0007672A1, “Isocyanoalkenes, process and useful intermediates for their preparation, pharmaceutical and fungicidal preparations containing those isocyanoalkenes and the use of the fungicidal preparations in agriculture” (GIST-BROCADES N.V., priority 1978, dated 1980).
Converted amounts (≈) assume the structure as drawn. Where two headings read alike, the source gives them in different places.

Columns and labels:
Assay in all cases: MIC (Minimum Inhibitory Concentration)
Format in all cases: cell-based
[1] = system: Candida albicans
Source text: (§1) In addition they may be used for combatting plant diseases, in particular as fungicides. A list of MIC (Minimum Inhibitory Concentration) values for a number of microorganisms is listed herebelow. The figures in the column headings refer to the compounds prepared according to the experimental examples in comparison with the spectrum of 1-[2-(2,4-dichlorophenyl)-2-{(2,4-dichlorophenyl)-methoxy} -ethyl7-1H-imidazole (better known under the name of miconazole, c.f. Merck Index 9th Ed. page 6047) or natamycin (pimaricin, c.f. Merck Index 9th Ed. page 7233).

[2] = system: Pasteurella multocida; details: Pasteurella multocida, read-out: MIC values
Source text: as §1

[3] = system: Streptococcus haemolyticus; details: Streptococcus, read-out: MIC values
Source text: as §1

[4] = system: Trichophyton equinum
Source text: as §1

[5] = system: Trichophyton mentagrophytus
Source text: as §1

[6] = system: Trichophyton quickeaneum; details: Trichophyton, read-out: MIC values
Source text: as §1

[7] = system: Trichophyton rubrum
Source text: as §1

[8] = system: Trichophyton schoenleinii; details: Trichophyton schoenleinii, read-out: MIC values
Source text: as §1

[9] = system: Trichophyton verrucosum
Source text: as §1

[10] = system: Trichophyton violoceum; details: Trichophyton, read-out: MIC values
Source text: as §1

[11] = read-out: MIC values, Candida albicans A 7
[12] = read-out: MIC values, Candida albicans A 3140
[13] = read-out: MIC values, Candida albicans A 3141
[14] = read-out: MIC values, Candida albicans A 3142
[15] = read-out: MIC values, Candida albicans A 3143
[16] = read-out: MIC values, Candida albicans A 3144
[17] = read-out: MIC values, Candida albicans A 3145
[18] = read-out: MIC values, Candida albicans A 3165
[19] = read-out: MIC values, Candida albicans A 3166
[20] = read-out: MIC values, Candida albicans A 3167
[21] = read-out: MIC values, Candida albicans A 3168
[22] = read-out: MIC values, Candida albicans A 3169
[23] = read-out: MIC values, Candida albicans A 3171
[24] = read-out: MIC values, Candida albicans A 3184
[25] = read-out: MIC values, Candida albicans A 3190
[26] = read-out: MIC values, Candida albicans A 3191
[27] = read-out: MIC values, Candida albicans A 3192
[28] = read-out: MIC values, Candida albicans A 3194
[29] = read-out: MIC values, Candida albicans A 3196

**Q.** For `[C-]#[N+]C(=C1CCCCCC1)S(=O)(=O)c1ccc(C)cc1` [Example 18a, a-cycloheptylidene-a-(4-toluenesulphonyl)-methylisocyanide], which MIC [1, 11] is on record?
**A.** 1.5 µg/mL (≈ 5.18 µM)

**Q.** And the MIC [1, 12]?
**A.** 1.5 µg/mL (≈ 5.18 µM)

**Q.** What about the MIC [1, 13] of the same compound?
**A.** 3 µg/mL (≈ 10.4 µM)

**Q.** And the MIC [1, 14]?
**A.** 1.5 µg/mL (≈ 5.18 µM)

**Q.** And the MIC [1, 15]?
**A.** 1.5 µg/mL (≈ 5.18 µM)

**Q.** And the MIC [1, 16]?
**A.** 3 µg/mL (≈ 10.4 µM)

**Q.** What about the MIC [1, 17] of the same compound?
**A.** 3 µg/mL (≈ 10.4 µM)

**Q.** What about the MIC [1, 18] of the same compound?
**A.** 1.5 µg/mL (≈ 5.18 µM)

**Q.** What about the MIC [1, 19] of the same compound?
**A.** 3 µg/mL (≈ 10.4 µM)

**Q.** And the MIC [1, 20]?
**A.** 0.75 µg/mL (≈ 2.59 µM)

**Q.** And the MIC [1, 21]?
**A.** 0.75 µg/mL (≈ 2.59 µM)

**Q.** And the MIC [1, 22]?
**A.** 3 µg/mL (≈ 10.4 µM)

**Q.** What about the MIC [1, 23] of the same compound?
**A.** 1.5 µg/mL (≈ 5.18 µM)

**Q.** What about the MIC [1, 24] of the same compound?
**A.** 3 µg/mL (≈ 10.4 µM)

**Q.** What about the MIC [1, 25] of the same compound?
**A.** 3 µg/mL (≈ 10.4 µM)

**Q.** What about the MIC [1, 26] of the same compound?
**A.** 3 µg/mL (≈ 10.4 µM)

**Q.** And the MIC [1, 27]?
**A.** 1.5 µg/mL (≈ 5.18 µM)

**Q.** And the MIC [1, 28]?
**A.** 1.5 µg/mL (≈ 5.18 µM)

**Q.** What about the MIC [1, 29] of the same compound?
**A.** 3 µg/mL (≈ 10.4 µM)

**Q.** What about the MIC [2] of the same compound?
**A.** 20 µg/mL (≈ 69.1 µM)

**Q.** And the MIC [3]?
**A.** 10 µg/mL (≈ 34.6 µM)

**Q.** How did the MIC [1, 11] turn out when `[C-]#[N+]C(C1=CCCCCC1)S(=O)(=O)c1ccc(C)cc1` (stereo not shown) [Example 18b, a-(cyclohepten-1-yl)-a-(4-toluenesulphonyl)-methylisocyanide] was run?
**A.** 6 µg/mL (≈ 20.7 µM)

**Q.** What about the MIC [1, 12] of the same compound?
**A.** 6 µg/mL (≈ 20.7 µM)

**Q.** What about the MIC [1, 13] of the same compound?
**A.** 12.5 µg/mL (≈ 43.2 µM)

**Q.** And the MIC [1, 14]?
**A.** 12.5 µg/mL (≈ 43.2 µM)

**Q.** What about the MIC [1, 15] of the same compound?
**A.** 12.5 µg/mL (≈ 43.2 µM)

**Q.** And the MIC [1, 16]?
**A.** 12.5 µg/mL (≈ 43.2 µM)

**Q.** What about the MIC [1, 17] of the same compound?
**A.** 6 µg/mL (≈ 20.7 µM)

**Q.** What about the MIC [1, 18] of the same compound?
**A.** 12.5 µg/mL (≈ 43.2 µM)

**Q.** And the MIC [1, 19]?
**A.** 12.5 µg/mL (≈ 43.2 µM)

**Q.** And the MIC [1, 20]?
**A.** 12.5 µg/mL (≈ 43.2 µM)

**Q.** And the MIC [1, 21]?
**A.** 6 µg/mL (≈ 20.7 µM)

**Q.** And the MIC [1, 22]?
**A.** 12.5 µg/mL (≈ 43.2 µM)

**Q.** And the MIC [1, 23]?
**A.** 12.5 µg/mL (≈ 43.2 µM)

**Q.** And the MIC [1, 24]?
**A.** 12.5 µg/mL (≈ 43.2 µM)

**Q.** What about the MIC [1, 25] of the same compound?
**A.** 12.5 µg/mL (≈ 43.2 µM)

**Q.** What about the MIC [1, 26] of the same compound?
**A.** 12.5 µg/mL (≈ 43.2 µM)

**Q.** What about the MIC [1, 27] of the same compound?
**A.** 12.5 µg/mL (≈ 43.2 µM)

**Q.** And the MIC [1, 28]?
**A.** 25 µg/mL (≈ 86.4 µM)

**Q.** And the MIC [1, 29]?
**A.** 12.5 µg/mL (≈ 43.2 µM)

**Q.** What about the MIC [2] of the same compound?
**A.** 50 µg/mL (≈ 173 µM)

**Q.** And the MIC [3]?
**A.** 25 µg/mL (≈ 86.4 µM)

**Q.** And the MIC ([4]; read-out: MIC values, Trichophyton equinum 182-76)?
**A.** > 100 µg/mL

**Q.** What about the MIC ([4]; read-out: MIC values, Trichophyton equinum 441-51) of the same compound?
**A.** < 0.05 µg/mL

**Q.** And the MIC ([4]; read-out: MIC values, Trichophyton equinum 856-71)?
**A.** 100 µg/mL (≈ 346 µM)

**Q.** And the MIC ([5]; read-out: MIC values, Trichophyton mentagrophytus 367-68)?
**A.** 25 µg/mL (≈ 86.4 µM)

**Q.** What about the MIC ([5]; read-out: MIC values, Trichophyton mentagrophytus 421-67) of the same compound?
**A.** > 100 µg/mL

**Q.** What about the MIC ([5]; read-out: MIC values, Trichophyton mentagrophytus A 3252) of the same compound?
**A.** > 100 µg/mL

**Q.** And the MIC ([5]; read-out: MIC values, Trichophyton mentagrophytus R 177)?
**A.** > 100 µg/mL

**Q.** What about the MIC ([5]; read-out: MIC values, Trichophyton mentagrophytus R 178) of the same compound?
**A.** > 100 µg/mL

**Q.** And the MIC ([5]; read-out: MIC values, Trichophyton mentagrophytus RRL 305)?
**A.** > 100 µg/mL

**Q.** And the MIC [6]?
**A.** 25 µg/mL (≈ 86.4 µM)

**Q.** What about the MIC ([7]; read-out: MIC values, Trichophyton rubrum 218-65) of the same compound?
**A.** 100 µg/mL (≈ 346 µM)

**Q.** And the MIC ([7]; read-out: MIC values, Trichophyton rubrum 494-62)?
**A.** > 100 µg/mL

**Q.** And the MIC [8]?
**A.** 6 µg/mL (≈ 20.7 µM)

**Q.** What about the MIC ([9]; read-out: MIC values, Trichophyton verrucosum 134-66) of the same compound?
**A.** 3 µg/mL (≈ 10.4 µM)

**Q.** What about the MIC ([9]; read-out: MIC values, Trichophyton verrucosum A 2922) of the same compound?
**A.** 12.5 µg/mL (≈ 43.2 µM)

**Q.** What about the MIC [10] of the same compound?
**A.** 6 µg/mL (≈ 20.7 µM)
